A short description of this data set: photoluminescence quantum yield (fraction); solvent given as SMILES.

“And” between values parts separate entries of the source, which are not always exact repeats. Identical values can stand only once.

For the compound `O=S(=O)(c1cccc(N2c3ccccc3Sc3ccccc32)c1)c1cccc(N2c3ccccc3Sc3ccccc32)c1`, the photoluminescence quantum yield came to 0.082 (in CCCCC(CC)n1c2ccc(-n3c4ccccc4c4ccccc43)cc2c2cc(-n3c4ccccc4c4ccccc43)ccc21) and 0.116 (in c1cc(-n2c3ccccc3c3ccccc32)cc(-n2c3ccccc3c3ccccc32)c1).
As for `O=c1oc2cc3ccccc3cc2nc1-c1ccccc1`, the photoluminescence quantum yield was 0.003 (in CC#N); 0.003 (in CCCCCC); 0.003 (in CO); 0.003 and 0.002 (in c1ccccc1).
In turn, `CCCCC(CC)COc1ccc2nc(-c3ccc(-c4c(C)noc4C)s3)sc2c1` (centres undefined) came in with a photoluminescence quantum yield (in ClCCl) of 0.72.
Where the note is “in ClC(Cl)Cl”, `N#Cc1nc(N(Cc2ccccc2Cl)Cc2ccccc2Cl)c(C#N)nc1N(Cc1ccccc1Cl)Cc1ccccc1Cl` yielded a photoluminescence quantum yield of 0.78.
For `CCCCn1c(-c2ccc(-c3nnc(-c4ccc(-c5nc6c7ccccc7c7ccccc7c6n5CCCC)cc4)o3)cc2)nc2c3ccccc3c3ccccc3c21`, the photoluminescence quantum yield (in ClCCl) was determined as 0.78.
In the case of `COc1ccc2cc(-c3ccc([N+](=O)[O-])cc3)ccc2c1`, the photoluminescence quantum yield reads like this: (in C1CCOC1) 0.006; (in CC#N) 0.006; (in ClC(Cl)Cl) 0.055; (in ClCCl) 0.11.
With `CC(C)(C)c1ccc(/C=C/c2ccc(N(c3ccc(/C=C/c4ccc(C(C)(C)C)cc4)cc3)c3ccc(-c4nc5ccccc5nc4-c4ccc(N(c5ccc(/C=C/c6ccc(C(C)(C)C)cc6)cc5)c5ccc(/C=C/c6ccc(C(C)(C)C)cc6)cc5)cc4)cc3)cc2)cc1`, the photoluminescence quantum yield (in C1CCOC1) amounted to 0.72.
For the compound `CN(C)c1ccc(C#Cc2cc(C#Cc3ccc(N(C)C)cc3)c3ccc4c(C#Cc5ccc(C(F)(F)F)cc5)cc(C#Cc5ccc(N(C)C)cc5)c5ccc2c3c54)cc1`, for the setting “in ClCCl”, the photoluminescence quantum yield came out at 0.65.
The same measure, in the same setting: the value for `CC(C)[Si](C#Cc1ccc(C#C[Si](C(C)C)(C(C)C)C(C)C)c2nc3c4ccccc4c(=O)c4ccccc4c3nc12)(C(C)C)C(C)C` was 0.08.
`COc1ccc2cc(C3=[N+]4C(=Nc5c(-c6ccc7ccccc7c6)c(Br)c(-c6ccc7cc(OC)ccc7c6)n5[B-]4(F)F)C(c4ccc5ccccc5c4)=C3Br)ccc2c1` gave a photoluminescence quantum yield (in ClCCl) of 0.
Compound `N#C/C(=C\c1ccc([N+](=O)[O-])cc1)c1nc(-c2ccccc2)cs1` gave a photoluminescence quantum yield (in CC#N) of 0.051.
In the case of `CN(C)c1ccc2cc(C3=[O+][B-](F)(F)OC(c4ccc(C#N)cc4)=C3)ccc2c1`, the photoluminescence quantum yield was 0.56 (in C1CCOC1); 0.007 (in CC#N); 0.18 (in CC(C)=O); 0.007 (in CS(C)=O); 0.62 (in Cc1ccccc1); 0.94 (in ClC(Cl)Cl). For the setting “in ClCCl”, this compound gave a photoluminescence quantum yield of 0.87.
In the case of `COCc1ncc(-c2c3ccccc3c(-c3cnc(COC)nc3)c3ccccc23)cn1`, the photoluminescence quantum yield reads like this: (in CCO) 0.89; (in ClCCl) 0.83.
In turn, `F[B-]1(F)n2c(/C=C/c3ccc(C(=C(c4ccccc4)c4ccccc4)c4ccccc4)cc3)ccc2C(c2ccccc2)=C2C=CC(/C=C/c3ccc(C(=C(c4ccccc4)c4ccccc4)c4ccccc4)cc3)=[N+]21` came in with a photoluminescence quantum yield (in C1CCOC1) of 0.42.
The compound `CCCCCCN1C(=O)c2cccc3cc(/N=C\c4cnc5ccccc5c4)cc(c23)C1=O` showed a photoluminescence quantum yield (in ClC(Cl)Cl) of 0.006.
Compound `F[B-]1(F)OC(c2ccc(N3CCCCC3)cc2)=Cc2cccc[n+]21` gave a photoluminescence quantum yield (in ClC(Cl)Cl) of 0.612.
`O=C1NC(c2ccccc2)=C/C1=C\c1ccccc1` came in with a photoluminescence quantum yield (in C1COCCO1) of 0.012.
As for `CC(C)(C)c1ccc2oc3nc4oc5ccc(N(c6ccccc6)c6ccccc6)cc5c4cc3c2c1`, the photoluminescence quantum yield (in ClC(Cl)Cl) stood at 0.083.
As to `C1=Nc2cccc3cccc(c23)N1`, the photoluminescence quantum yield is, setting by setting: (in CC#N) 0.0013; (in CO) 0.0005; (in CS(C)=O) 0.0031; (in Cc1ccccc1) 0.005.
Compound `COc1ccc(C#Cc2cc3ccccc3oc2=O)cc1` showed a photoluminescence quantum yield (in CC#N) of 0.55.
For the setting “in Cc1ccccc1”, `N#CC(C#N)=Cc1ccc2nc(C#Cc3ccc(N(c4ccc(C#Cc5nc6ccc(C=C(C#N)C#N)cc6s5)cc4)c4ccc(C#Cc5nc6ccc(C=C(C#N)C#N)cc6s5)cc4)cc3)sc2c1` displayed a photoluminescence quantum yield of 0.61.
In the case of `CCN(CC)c1ccc(/C=C/c2cc(/C=C/c3ccc(N(CC)CC)cc3)nc(N)n2)cc1`, the photoluminescence quantum yield by setting is: (in Cc1ccccc1) 0.72; (in ClC(Cl)Cl) 0.61.
Consider `C[n+]1cc2ccc3c[n+](C)cc4ccc(c1)c2c34`, for which the photoluminescence quantum yield (in CC#N) stood at 0.6.
Where the note is “in CC#N”, `CC1=[N+]2C(=C(c3ccccc3)c3c4c(c(C)n3[B-]2(F)F)C2CCC4CC2)C2=C1C1CCC2CC1` had a photoluminescence quantum yield of 0.81.
`O=C1c2ccccc2C2=Nc3cccc4cccc(c34)N12` displayed a photoluminescence quantum yield (in ClCCl) of 0.02.
With `COc1ccc(N(c2ccc(/C=C(\C)c3ccccc3)cc2)c2ccc(OC)cc2)cc1`, the photoluminescence quantum yield (in Cc1ccccc1) was 0.41.
As to `O=c1c2cc(C#Cc3ccccc3)ccc2nc2ccc(C#Cc3ccccc3)cn12`, for the setting “in ClCCl”, the photoluminescence quantum yield was 0.41.
For `COc1ccc2c(-c3nc(-c4cccc(Br)c4)no3)cc(=O)oc2c1`, the photoluminescence quantum yield by setting is: (in CCO) 0.41; (in ClC(Cl)Cl) 0.33.
Compound `CCCCCOc1cc2oc(=O)c3c4ccc(C#N)cc4c4ccc5cccc6c(c1)c2c3c4c56` came in with a photoluminescence quantum yield (in C1CCOC1) of 0.499.
Compound `COc1ccc2c(c1)c1cc(OC)ccc1n2-c1cc(Cl)c([C](c2c(Cl)cc(Cl)cc2Cl)c2c(Cl)cc(Cl)cc2Cl)c(Cl)c1` showed a photoluminescence quantum yield (in C1CCCCC1) of 0.006.
For `COc1ccc(C2=N/C(=C\c3ccccc3)C(=O)N2)cc1OC`, the photoluminescence quantum yield (in C1COCCO1) turned out to be 0.034.
For `C(=C\c1c2ccccc2cc2ccccc12)/c1ccccc1`, the photoluminescence quantum yield came out at 0.46 (in CC1CCCCC1) and 0.45 (in CC#N).
As to `F[B-]1(F)n2c(c(-c3ccccc3)c(-c3cccs3)c2-c2ccccc2)N=C2C(c3ccccc3)=C(c3cccs3)C(c3ccccc3)=[N+]21`, the photoluminescence quantum yield (in ClCCl) came out at 0.
For the compound `COc1c2ccccc2c(OC)c2c(C#CC(C)(C)C)c3cc4ccccc4cc3c(C#CC(C)(C)C)c12`, the photoluminescence quantum yield worked out at 0.11 (in C1CCOC1), 0.1 (in Cc1ccccc1) and 0.09 (in ClCCl).
Compound `N#C/C(=C\c1ccncc1)c1nc(-c2ccc(Cl)cc2)cs1` showed a photoluminescence quantum yield (in CC#N) of 0.168.
On to `CCCCN(CCCC)c1ccc(C#Cc2cc(C#Cc3c(F)c(F)c(F)c(F)c3F)c(C#Cc3ccc(N(CCCC)CCCC)cc3)cc2C#Cc2c(F)c(F)c(F)c(F)c2F)cc1`, for which the photoluminescence quantum yield (in ClCCl) is 0.14.
For the setting “in CCO”, `Nc1cc2nc3cc(Cl)c(Cl)cc3nc2cc1N` came in with a photoluminescence quantum yield of 0.1.
`Cc1cc(C)c(C2=C3C=C(/C=C/C(=O)OC(C)(C)C)C=[N+]3[B-](F)(F)n3cc(/C=C/C(=O)OC(C)(C)C)cc32)c(C)c1` had a photoluminescence quantum yield (in ClCCl) of 0.4.
Compound `CC1=C(C#Cc2ccc(N(c3ccccc3)c3ccccc3)cc2)C(C)=[N+]2C1=C(c1ccccc1)c1c(C)c(C#Cc3ccc(N(c4ccccc4)c4ccccc4)cc3)c(C)n1[B-]2(F)F` showed a photoluminescence quantum yield (in C1CCOC1) of 0.31.
In the case of `CSc1sc(C(=O)c2ccccc2)c2nn[nH]c(=O)c12`, the photoluminescence quantum yield stood at 0.016 (in C1CCOC1); 0.013 (in CC#N); 0.0088 (in CCO); 0.0057 (in CN(C)C=O); 0.0069 (in CO); 0.0056 (in CS(C)=O).
Compound `O=S1(=O)c2ccc(-c3c4ccccc4cc4ccccc34)cc2-c2cc(-c3c4ccccc4cc4ccccc34)ccc21` came in with a photoluminescence quantum yield (in C1CCCCC1) of 0.39, a photoluminescence quantum yield (in CC#N) of 0.13 and a photoluminescence quantum yield (in ClCCl) of 0.24.
Consider `O=C(c1ccc(N(c2ccccc2)c2ccccc2)cc1)[C@H]1[C@H](c2ccccc2)C[C@](O)(c2ccccn2)C[C@]1(O)c1ccccn1`, for which the photoluminescence quantum yield is, setting by setting: (in C1CCOC1) 0.48; (in CC#N) 0.02; (in CCO) 0.01; (in CCOC(C)=O) 0.4; (in CN(C)C=O) 0.03; (in ClCCl) 0.25. Moreover, where the note is “in c1ccccc1”, the photoluminescence quantum yield was found to be 0.93.
With `C[Si](C)(C)O[Si]1(O[Si](C)(C)C)n2c3c4ccccc4c2/N=C2N=C(/N=c4/c5ccccc5/c(n41)=N/C1=NC(=N\3)/c3ccccc31)c1ccccc1\2`, under “in CN(C)C=O”, the photoluminescence quantum yield stood at 0.42.
For the compound `Nc1cccc2cn[nH]c12`, the photoluminescence quantum yield (in CC#N) turned out to be 0.3, the photoluminescence quantum yield (in CO) turned out to be 0.11 and the photoluminescence quantum yield (in O) is 0.07.
Under “in c1cc(-c2cccc(-n3c4ccccc4c4ccccc43)c2)cc(-n2c3ccccc3c3ccccc32)c1”, `Cc1cc(-c2nc(-c3ccccc3)nc(-c3ccccc3)n2)ccc1-c1ccc2c(c1)C1(c3ccccc3-c3ccccc31)c1ccccc1N2c1ccccc1` came in with a photoluminescence quantum yield of 1.
On to `CC(C)CN1C(=O)/C(=C/c2ccc(C#N)cc2)C=C1c1ccccc1`, for which the photoluminescence quantum yield (in C1COCCO1) came out at 0.153.
`CCCCCCCCCCCCOc1cc2c3c(ccc4c5c(NC6CCCCC6)cc6c7c(ccc(c1c34)c75)C(=O)N(C1CCCCC1)C6=O)C(=O)N(C1CCCCC1)C2=O` returned a photoluminescence quantum yield (in ClC(Cl)Cl) of 0.01.
As to `O=C1c2cccc3cc4ccccc4c(c23)C(=O)N1Cc1ccccn1`, the photoluminescence quantum yield is, setting by setting: (in C1CCOC1) 0.83; (in CCCCCC) 0.61; (in CCO) 0.91; (in Cc1ccccc1) 0.69; (in ClCCl) 0.93.
Compound `F[Si-](F)(c1c2ccccc2cc2ccccc12)(c1c2ccccc2cc2ccccc12)c1c2ccccc2cc2ccccc12` registered a photoluminescence quantum yield (in C1CCOC1) of 0.64.
`CCN(CC)c1ccc2c(-c3ccccc3C(=O)O)c3c([o+]c2c1)/C(=C/c1nc(-c2ccccc2)n2ccccc12)CCC3` yielded a photoluminescence quantum yield (in ClCCl) of 0.4.
Consider `CC(=O)c1ccc(-c2cc(C)[o+]c(C)c2)cc1`, for which the photoluminescence quantum yield (in ClCCl) is 0.03.
`N#Cc1nn(-c2ccc(Cl)cc2)nc1N1CCCC1` had a photoluminescence quantum yield (in CC#N) of 0.829.
Compound `CCCCC1(c2ccccc2)Nc2c(-c3ccc(OC)cc3)ccc(-c3ccc(OC)cc3)c2N=C1c1ccccc1` (centres undefined) came in with a photoluminescence quantum yield (in ClC(Cl)Cl) of 0.45.

The record behind these values is the Deep4Chem optical property database.
